Assay results published in patent publication US7563882B2, “Polynucleotides encoding antibodies that bind to the C35 polypeptide” (University of Rochester, priority 2002, dated 2009).

T1: hC35 protein (Homo sapiens, UniProt Q9BRT3)
T1 construct: made in house; host or cells: E. coli
T1 sequence (Q9BRT3 1-115): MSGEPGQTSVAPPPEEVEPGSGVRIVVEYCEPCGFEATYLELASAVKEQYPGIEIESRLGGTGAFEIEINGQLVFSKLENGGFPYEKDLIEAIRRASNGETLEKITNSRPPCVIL


Experiments:
Mel 1700 = experiment: 51Cr release, CD8+ cells stimulated with K104-V113 peptides (Example 17); assay type: cell-based, human; settings: target Mel 1700, effector to target 30:1, CD8+ cells 12 days in IL-2 after fourth stimulation; for Raw Chromium Values: Table 15 (repeat); for Percentage of Target Cells Lysed: Table 16 (repeat)
21NT.A2 = experiment: as above; assay type: cell-based, human; settings: target 21NT.A2
PCl-13 = experiment: as above; assay type: cell-based, human; settings: target PCl-13, CD8+ cells of donor stimulated with peptide pulsed DCs; for Raw Chromium Values: Table 13; for Percentage of Target Cells Lysed: Table 14
PCl-13 K104-V113-Ser = experiment: as above; assay type: cell-based, human; settings: CD8+ cells of donor stimulated with peptide pulsed DCs; for Raw Chromium Values: Table 13, target PCl-13 K104-V113-Ser; for Percentage of Target Cells Lysed: Table 14, target Pcl-13 K104-V113-Ser
H16.A2 = experiment: as above; assay type: cell-based, human; settings: for Raw Chromium Values: target H16.A2
K562 = experiment: as above; assay type: cell-based, human; settings: for Raw Chromium Values: target K562
21NT = experiment: as above; assay type: cell-based, human; settings: target 21NT, CD8+ cells of donor stimulated with peptide pulsed DCs; for Raw Chromium Values: Table 13; for Percentage of Target Cells Lysed: Table 14
Mel 1359 = experiment: as above; assay type: cell-based, human; settings: target Mel 1359, effector to target 30:1, CD8+ cells 12 days in IL-2 after fourth stimulation; for Raw Chromium Values: Table 15 (repeat); for Percentage of Target Cells Lysed: Table 16 (repeat)
Mel F002 = experiment: as above; assay type: cell-based, human; settings: for Raw Chromium Values: Table 15 (repeat), target Mel F002, effector to target 30:1, CD8+ cells 12 days in IL-2 after fourth stimulation; for Percentage of Target Cells Lysed: Table 16 (repeat), effector to target 30:1, CD8+ cells 12 days in IL-2 after fourth stimulation
Mel 501 = experiment: as above; assay type: cell-based, human; settings: target Mel 501, effector to target 30:1, CD8+ cells 12 days in IL-2 after fourth stimulation; for Raw Chromium Values: Table 15 (repeat); for Percentage of Target Cells Lysed: Table 16 (repeat)
21NT.A2-Ser = experiment: as above; assay type: cell-based, human; settings: target 21NT.A2-Ser, effector to target 30:1, CD8+ cells 12 days in IL-2 after fourth stimulation; for Raw Chromium Values: Table 15 (repeat); for Percentage of Target Cells Lysed: Table 16 (repeat)
B/C.N cells = experiment: 51Cr release (CML), sensitization of B/C.N to lysis by tumor specific CTL; assay type: cell-based, mouse
hC35 protein = target: T1, hC35 protein; experiment: Western Blot immunodetection with hybridoma supernatants; assay type: binding; settings: 100 ng purified recombinant C35 protein or control β-galactosidase per lane
Experimental: Western Blot Immunodetection was performed with supernatants from selected hybridoma clones. […] In these experiments, 100 ng of purified recombinant C35 protein or control β-galactosidase protein was loaded in each lane of an 18% SDS polyacrylamide gel. Gels were transferred to PVDF membrane, as is well known to those practiced in the art. Membranes were blocked with Tris buffered saline (TBS), including Tween-20 and 5% non-fat dry milk. Each blot was incubated with various dilutions of hybridoma supernatants as the primary antibody, followed by incubation with a secondary antibody, goat anti-mouse IgG conjugated to HRP, and detected with the chemiluminescent substrate, ECL. Similar results were obtained with 11B10 (not shown).

[1] = Table 13, CD8+ cells of donor stimulated with peptide pulsed DCs
[2] = Table 14, CD8+ cells of donor stimulated with peptide pulsed DCs
[3] = Table 15 (repeat), effector to target 30:1, CD8+ cells 12 days in IL-2 after fourth stimulation
[4] = Table 16 (repeat), effector to target 30:1, CD8+ cells 12 days in IL-2 after fourth stimulation

Molecule	Raw Chromium Values (Mel 1700)	Percentage of Target Cells Lysed (Mel 1700)	Raw Chromium Values (21NT.A2; [1])	Percentage of Target Cells Lysed (21NT.A2; [2])	Raw Chromium Values (21NT.A2; [3])	Percentage of Target Cells Lysed (21NT.A2; [4])	Raw Chromium Values (PCl-13)	Percentage of Target Cells Lysed (PCl-13)	Raw Chromium Values (PCl-13 K104-V113-Ser)	Percentage of Target Cells Lysed (PCl-13 K104-V113-Ser)	Raw Chromium Values (H16.A2; [1])	Percentage of Target Cells Lysed (H16.A2; [2])	Raw Chromium Values (H16.A2; [3])	Percentage of Target Cells Lysed (H16.A2; [4])	Raw Chromium Values (K562; [1])	Percentage of Target Cells Lysed (K562; [2])	Raw Chromium Values (K562; [3])	Percentage of Target Cells Lysed (K562; [4])	Raw Chromium Values (21NT)	Percentage of Target Cells Lysed (21NT)	also measured
KITNSRPPSV (synthetic analog of human C35 epitope) [K104-V113-Ser]	2951	24.1%	3228	63.2%	4957	53.4%	581	1.1%	2588	58.7%	584	2.6%	1018	5.6%	323	2.5%	974	5.3%	185	0.5%	Raw Chromium Values (Mel 1359): 2357; Percentage of Target Cells Lysed (Mel 1359): 3.0%; Raw Chromium Values (Mel F002): 974; Percentage of Target Cells Lysed (Mel F002): 15.1%; Raw Chromium Values (Mel 501): 4762; Percentage of Target Cells Lysed (Mel 501): 45.3%; Raw Chromium Values (21NT.A2-Ser): 4762; Percentage of Target Cells Lysed (21NT.A2-Ser): 56.0%
KITNSRPPAV (synthetic analog of human C35 epitope) [K104-V113-Ala]	1543	2.4%	763	7.3%	1365	6.4%	468	−2.2%	746	6.0%	479	0.9%	829	2.0%	246	−0.9%	815	2.9%	155	−0.7%	Raw Chromium Values (Mel 1359): 3050; Percentage of Target Cells Lysed (Mel 1359): 9.9%; Raw Chromium Values (Mel F002): 815; Percentage of Target Cells Lysed (Mel F002): 7.6%; Raw Chromium Values (Mel 501): 2423; Percentage of Target Cells Lysed (Mel 501): 11.1%; Raw Chromium Values (21NT.A2-Ser): 2423; Percentage of Target Cells Lysed (21NT.A2-Ser): 22.5%
L348-56 (T54): wild type ribosomal protein L3 peptide 48-56 with Thr 54 (GYKAGMTHI) [reference compound]	–	–	–	–	–	–	–	–	–	–	–	–	–	–	–	–	–	–	–	–	sensitization of B/C.N cells to lysis by tumor-specific CTL (B/C.N cells; 4 hours): did not; peptide concentration to sensitize targets to lysis by CTL (B/C.N cells; B/C.N targets): > 100 µM
3E10: C35-specific monoclonal antibody; Kappa and IgG1 V-genes SEQ ID NOs:150 and 151 (antibody, V domains shown, cDNA of 3E10 V-genes (IgG1); cDNA of 3E10 V-genes (Kappa)) VH: MMVLSLLYLLTALPGILSEVQLQESGPSLVKPSQTLSLTCSVTGDSITSGYWNWIRKFPGNKLEYVGYISYSGGTYYNPSLKSRISITRDTSKNHYYLQLNSVTTEDTATYYCARGAYYGGAFFPYFDVWGAGTTVTVSS VL: MRFQVQVLGLLLLWISGAHCDVQITQSPSFLAASPGETITINCRASKYISKHLVWYQEKPGETKKLLIYSGSTLQSGLPSRFSGSGSGTDFTLTISSLEPEDFAMYYCQQHNEYPLTFGAGTKLELK	–	–	–	–	–	–	–	–	–	–	–	–	–	–	–	–	–	–	–	–	reactivity with hC35 protein in Western Blot (hC35 protein): reacted specifically
